Measurements as given in patent US9238034B2, “FN14 antagonists and therapeutic uses thereof” (THE TRANSLATIONAL GENOMICS RESEARCH INSTITUTE, priority 2013, dated 2016).
Where two headings read alike, the source gives them in different places.

Molecular target: T1, Fn14-TWEAK binding (Homo sapiens, UniProt Q9NP84)
T1 construct: the human Fc fragment-tagged Fn14 extracellular domain (R&D Systems) was captured; purchased R&D Systems (Fn14-Fc); Peprotech (recombinant TWEAK)
T1 sequence (Q9NP84 28-80 limits assumed): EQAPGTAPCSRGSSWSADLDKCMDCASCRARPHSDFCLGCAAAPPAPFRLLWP
Assay: Double sandwich ELISA small molecule screening of TWEAK binding to captured Fn14-Fc
Procedure: Double Sandwich ELISA. sTWEAK and sTWEAK variant proteins were synthesized as described above. The expression level of each IVTT synthesized sTWEAK protein was analyzed by western blot analysis and used in approximately equal amounts in the ELISA. To assay the binding of wild type sTWEAK and sTWEAK variants to Fn14, the human Fc fragment-tagged Fn14 extracellular domain (R&D Systems) was captured in an Immuno 96-microwell white plate by adding 100 μL of 0.025 μg/mL Fn14-Fc to wells coated with goat anti-human Fcγ fragment specific monoclonal antibody. After capture, the wells were washed 3× with Dulbecco's Phosphate Buffered Saline (DPBS) containing 0.05% Tween-20. Unbound sites were blocked by addition of 100 μL of blocking solution containing 0.05% Tween-20, 1% BSA, and 3% normal goat serum (NGS) in DPBS for 1 hr at room temperature. 0.01 μL of sTWEAK or sTWEAK variant made with the human IVTT kit or 2 μL of sTWEAK or sTWEAK variant made with the rabbit IVTT kit was diluted in 100 μL of sample diluent (DPBS+1% BSA+0.005% Tween-20) and then added to the wells for 2 hr followed by addition of 100 μL of 50 ng/mL biotinylated TWEAK detection antibody (R&D Systems) in sample diluent. Following incubation for additional 2 hr at room temperature, wells were washed 3× with DPBS containing 0.05% Tween-20 and bound biotinylated TWEAK antibody was detected by incubation with an HRP-conjugated streptavidin. The total luminescent signal was obtained using Femto ELISA kit (Pierce Biochemical) and compared to the standard curve signal obtained from the binding of 0-4000 pg/mL recombinant TWEAK (Peprotech inc) to Fn14-Fc. Using 5-parameter logistic curve fitting for standard curve analysis (Sigmaplot 11.0, SyStat Software Inc.), binding of sTWEAK or TWEAK variant to Fn14-Fc was determined. The data represents that observed for at least four replicate assays.
The small molecule screening was performed using the ELISA assay described above with minor modifications. Briefly, after capturing Fn14-Fc in the microwell plate, 80 μl of drug solution in sample diluent was added to desired wells and incubated for 2 hrs at room temperature. Subsequently, 20 μL of 2500 pg/mL (5×) TWEAK was added to each well to achieve final TWEAK concentration of 500 pg/mL and incubated for additional 2 hr at room temperature. Bound TWEAK was detected as described in the protocol above. All small molecule inhibitors were screened at 25 μM final concentration (final DMSO concentration of 0.125%) in duplicate. Cyclohexamide, a non-specific small molecule, at 25 μM concentration was used as negative control. The anti-Fn14 antibody ITEM-4, added at 2.5 μg/mL, was used as a positive control for complete blockade of TWEAK binding. Reduction in TWEAK binding due to compound addition or controls was calculated by using standard curve (Separate standard curve was obtained for every screening plate).

[1] = Table 3, first round of screening, 25 μM, average of duplicate, read-out: % Reduction in TWEAK Binding, Average
[2] = Table 3, first round of screening, 25 μM, replicate 1, read-out: % Reduction in TWEAK Binding, Data 1
[3] = Table 3, first round of screening, 25 μM, replicate 2, read-out: % Reduction in TWEAK Binding, Data 2
[4] = Table 4, second screening iteration, 25 μM, average of duplicate, read-out: % Reduction in TWEAK Binding, Average
[5] = Table 4, second screening iteration, 25 μM, replicate 1, read-out: % Reduction in TWEAK Binding, Data 1
[6] = Table 4, second screening iteration, 25 μM, replicate 2, read-out: % Reduction in TWEAK Binding, Data 2
[7] = Table 5, 25 μM, average of duplicate, read-out: % Reduction in TWEAK Binding, Average
[8] = Table 5, 25 μM, replicate 1, read-out: % Reduction in TWEAK Binding, Data 1
[9] = Table 5, 25 μM, replicate 2, read-out: % Reduction in TWEAK Binding, Data 2
[10] = first round of screening, 25 μM, read-out: average inhibition in TWEAK-Fn14 binding
[11] = second screening iteration, 25 μM, average, read-out: inhibition of TWEAK binding to Fn14

| inhibition at 25 µM [1] [%] | inhibition at 25 µM [2] [%] | inhibition at 25 µM [3] [%] | inhibition at 25 µM [4] [%] | inhibition at 25 µM [5] [%] | inhibition at 25 µM [6] [%] | inhibition at 25 µM [7] [%] | inhibition at 25 µM [8] [%] | inhibition at 25 µM [9] [%] | inhibition at 25 µM [10] [%] | % Reduction in TWEAK Binding, Average (Table 4, second screening iteration, 25 μM, average of duplicate) [%] | % Reduction in TWEAK Binding, Data 1 (Table 4, second screening iteration, 25 μM, replicate 1) [%] | % Reduction in TWEAK Binding, Data 2 (Table 4, second screening iteration, 25 μM, replicate 2) [%] | inhibition at 25 µM [11] [%] | Structure (SMILES) |
| --- | --- | --- | --- | --- | --- | --- | --- | --- | --- | --- | --- | --- | --- | --- |
| 10.9 | 8.55 | 13.2 | 1.62 | -2.3 | 5.55 | 10.9 | 8.55 | 13.2 | – | – | – | – | – | O=C(NCc1ccccc1Cl)C(=O)NCc1n[nH]c(=O)c2ccccc12 [Compound F044-0076] |
| – | – | – | 11.7 | 11.3 | 12.2 | 11.7 | 11.3 | 12.2 | – | – | – | – | – | O=C(CSc1nnc(-c2ccccc2)c(-c2ccccc2)n1)Nc1ccc(S(=O)(=O)Nc2nccs2)cc1 [Compound 4981-0539] |
| 15 | 23.1 | 6.98 | – | – | – | 15 | 23.1 | 6.98 | > 15 | – | – | – | – | Cc1cc(C2CCCN2C(=O)c2cc(-c3ccc4c(c3)OCO4)on2)on1 (stereo not shown) [Compound J004-1091] |
| 11.6 | 9.04 | 14.2 | – | – | – | 11.6 | 9.04 | 14.2 | – | – | – | – | – | CCC(=O)Nc1ccccc1-c1nnc(SC(CC)C(=O)Nc2cccc(OC)c2)[nH]c1=O (stereo not shown) [Compound F151-0392] |
| – | – | – | – | – | – | – | – | – | – | 9.52 | 10.8055 | 8.234 | – | O=C(CSc1nnc(-c2ccccc2)c(-c2ccccc2)n1)Nc1ccccc1Cl [Compound K784-2269] |
| 13.3 | 16.6 | 9.99 | – | – | – | 13.3 | 16.6 | 9.99 | – | – | – | – | – | Cc1ccc(-c2csc3c(=O)[nH]c(N4CCCC(C(N)=O)C4)nc23)cc1 (stereo not shown) [Compound Z250-1348] |
| – | – | – | 15.7 | 18.6 | 12.7 | 15.7 | 18.6 | 12.7 | – | – | – | – | – | COc1ccc(-c2nnc(SCC(=O)Nc3cccc4ccccc34)nc2-c2ccccc2)cc1 [Compound 8014-3315] |
| – | – | – | 16.6 | 17.2 | 16 | 16.6 | 17.2 | 16 | – | – | – | – | – | COc1cccc(NC(=O)CSc2nnc(-c3ccc(F)cc3)c(-c3ccc(F)cc3)n2)c1 [Compound K216-0906] |
| – | – | – | – | – | – | 14.3 | 13.4 | 15.2 | – | – | – | – | – | O=C(NCc1ccncc1)C1CCCN(c2nc3c(-c4ccccc4)csc3c(=O)[nH]2)C1 (stereo not shown) |
| 10.9 | 8.79 | 13 | – | – | – | 10.9 | 8.79 | 13 | – | – | – | – | – | CCC(=O)Nc1ccccc1-c1nnc(SC(C)C(=O)Nc2cccc(Cl)c2C)[nH]c1=O (stereo not shown) [Compound F151-0419] |
| 10.3 | 14.7 | 5.86 | – | – | – | 10.3 | 14.7 | 5.86 | – | – | – | – | – | CCC(=O)Nc1ccccc1-c1nnc(SCC(=O)Nc2ccc(OC)cc2)[nH]c1=O [Compound F151-0485] |
| – | – | – | 17 | 24 | 10.1 | 17 | 24 | 10.1 | – | – | – | – | – | O=C(CSc1nnc(-c2ccccc2)c(-c2ccccc2)n1)Nc1cccc(Cl)c1 [Compound K784-2268] |
| – | – | – | 13.4 | 21.9 | 4.93 | 13.4 | 21.9 | 4.93 | – | – | – | – | – | Cc1cc(NC(=O)CSc2ccccc2)ccc1Cl [Compound 1068-0114] |
| – | – | – | – | – | – | 19.6 | 22.2 | 17.1 | – | – | – | – | – | CCS(=O)(=O)c1ccc(OCc2cc(=O)n3oc(C)cc3n2)c(NC(=O)COc2ccccc2C)c1 |
| – | – | – | 16.8 | 15.5 | 18 | 16.8 | 15.5 | 18 | – | – | – | – | – | C=CCSc1nnc(-c2ccccc2NC(=O)CC)c(O)n1 [Compound 6969-1085] |
| – | – | – | 22 | 20.8 | 23.2 | 22 | 20.8 | 23.2 | – | – | – | – | – | O=C(NCc1n[nH]c(=O)c2ccccc12)C(=O)N1CCCCCC1 [Compound F044-0011] |
| – | – | – | 26.3 | 27.4 | 25.1 | 26.3 | 27.4 | 25.1 | – | – | – | – | – | CCn1c(=O)c(S(=O)(=O)c2ccccc2)c(O)c2ccccc21 [Compound C200-7197] |
| 14.5 | 14.3 | 14.7 | – | – | – | 14.5 | 14.3 | 14.7 | < 15 | – | – | – | – | O=C(O)C[C@@H]1NC(=O)c2ccccc2NC1=O [Compound D715-2673] |
| 10.4 | 13 | 7.81 | – | – | – | 10.4 | 13 | 7.81 | – | – | – | – | – | COc1ccccc1NC(=O)Cc1csc(NC(=O)Nc2ccccc2)n1 [Compound F042-0072] |
| – | – | – | 32.1 | 34.5 | 29.8 | 32.1 | 34.5 | 29.8 | – | – | – | – | 32.1 | COc1ccc(-c2nnc(SCC(=O)Nc3ccccc3OC)nc2-c2ccc(OC)cc2)cc1 [Compound 3809-1067] |
| – | – | – | 16.5 | 15 | 18 | 16.5 | 15 | 18 | – | – | – | – | – | CCC(=O)Nc1ccccc1-c1ccccc1NC(=O)CC [Compound 4478-7056] |
| – | – | – | 20.2 | 19.5 | 20.9 | 20.2 | 19.5 | 20.9 | – | – | – | – | – | CCCC(=O)Nc1ccccc1-c1nnc(SC)nc1O [Compound 7033-0155] |
| 10.3 | 9.04 | 11.5 | – | – | – | 10.3 | 9.04 | 11.5 | – | – | – | – | – | O=C(Cc1c[nH]c2ccccc12)Nc1ccc2oc(=O)ccc2c1 [Compound D715-0817] |
| – | – | – | 36.7 | 35.6 | 37.8 | 36.7 | 35.6 | 37.8 | – | – | – | – | 36.7 | Cc1cccc(-n2c(=O)c3[nH]c4ccccc4sc=3c2=O)c1 [Compound 8211-0292] |
